According to ChEMBL document CHEMBL5052827, “Ash1l inhibitors and methods of treatment therewith” (2020):
The source made the active and inactive calls. No cut-off for these calls is given here.

What was measured:
[1] = molecular target: Histone-lysine N-methyltransferase ASH1L (Homo sapiens, UniProt Q9NR48); assay: Inhibition of ASH1L SET-BAH construct (unknown origin) (2069 to 2833 residues) using SAM as substrate incubated for 1 hr and measured after 45 mins by Beckman scintillation counter method
MV4-11 [2] = assay: Antitumor activity in human MV4-11-Luc cells xenografted female NSG mouse assessed as decrease in leukemia progression at 25 mg/kg, ip administered twice a day for 21 days; assay type: functional, organism-based; details: time 21.0 day
KOPN-8 = assay: Antiproliferative activity against human KOPN-8 cells measured after 14 days by MTT assay; assay type: functional; details: KOPN-8, 336 h, time 14 day
[3] = Cytotoxicity against human CD34-positive cells; assay type: toxicity, cell-based, CD34-positive (myeloid/lymphoid) cell
MOLM-13 = assay: Antiproliferative activity against human MOLM-13 cells measured after 14 days by MTT assay; assay type: functional; details: MOLM-13, 336 h, time 14 day
MV4-11 [4] = assay: Induction of human MV4-11 cell differentiation at 6 to 12 uM measured after 7 days; assay type: functional, cell-based; details: dose 6-12 µM, time 7.0 day
K562 = assay: Antiproliferative activity against human K562 cells measured after 14 days by MTT assay; assay type: functional; details: K562, 336 h, time 14 day
MV4-11 [5] = assay: Antiproliferative activity against human MV4-11 cells measured after 14 days by MTT assay; assay type: functional; details: MV4-11, 336 h, time 14 day
SEM cells = assay: Antiproliferative activity against human SEM cells measured after 14 days by MTT assay; assay type: functional; details: 336 h, time 14 day

Compound	IC50 [1]	also measured
NC(=S)c1cccc(-c2cn(C3CCN(S(=O)(=O)C(F)(F)F)CC3)c3cc(CNC(=O)[C@@H]4C[C@H](F)CN4)ccc23)c1	< 20 µM	–
CC(C)S(=O)(=O)N1CCC(n2cc(-c3cccc(C(N)=S)c3)c3ccc(N4CCCC4=O)cc32)CC1	< 20 µM	–
NC(=S)c1cccc(-c2cn(C3CCN(S(=O)(=O)CCCNC(=O)CCCC[C@@H]4SC[C@@H]5NC(=O)N[C@@H]54)CC3)c3cc(CNC(=O)c4c[nH]c5ccccc45)ccc23)c1	< 20 µM	–
CS(=O)(=O)Nc1ccc2c(-c3cccc(C(N)=S)c3)cn(C3CCOCC3)c2c1	< 20 µM	–
NC(=S)c1cccc(-c2cn(C3CCOCC3)c3cc(CNc4cc[nH]n4)ccc23)c1	< 20 µM	–
COc1ccc(Cn2cnc(NCc3ccc4c(-c5cccc(C(N)=S)c5)cn(C5CCOCC5)c4c3)c2[N+](=O)[O-])cc1	< 20 µM	–
CS(=O)(=O)Nc1ccc2c(-c3cccc(C(N)=S)c3)cn(C3CCC(F)(F)CC3)c2c1	< 20 µM	–
CC(C)S(=O)(=O)N1CCC(n2cc(-c3cccc(C(N)=S)c3)c3ccc(CNC(=O)C4CCN4)cc32)CC1 (configuration not stated)	< 20 µM	–
CS(=O)(=O)N1CCC(n2cc(-c3cccc(C(N)=S)c3)c3ccc(NC(=O)CCCCCNC(=O)c4ccc5c(c4)C(=O)OC54c5ccc(O)cc5Oc5cc(O)ccc54)cc32)CC1	< 20 µM	–
NC(=S)c1cccc(-c2cn(C3CCN(c4nccs4)CC3)c3cc(CNC(=O)c4c[nH]c5ncccc45)ccc23)c1	< 20 µM	–
CCC(=O)Nc1ccc2c(-c3cccc(C(N)=S)c3)cn(CC(CF)CF)c2c1	< 20 µM	–
CC1CC(n2cc(-c3cccc(C(N)=S)c3)c3ccc(N)cc32)CCN1S(C)(=O)=O (configuration not stated)	< 20 µM	–
CNC(=O)NCc1ccc2c(-c3cccc(C(N)=S)c3)cn(C3CCN(S(=O)(=O)C(F)(F)F)CC3)c2c1	< 20 µM	–
NC(=S)c1cccc(-c2cn(C3CCN(S(=O)(=O)C(F)(F)F)CC3)c3cc(CNC(=O)NCC4CCN4)ccc23)c1 (configuration not stated)	< 20 µM	–
CS(=O)(=O)N1CCC(n2cc(-c3cccc(C(N)=S)c3)c3ccc(NC(=O)CCOCCOCCOCCOCCOCCOCCOCCOCCNC(=O)CCCC[C@@H]4SC[C@@H]5NC(=O)N[C@@H]54)cc32)CC1	< 20 µM	–
C[C@@H]1CN[C@H](C(=O)NCc2ccc3c(-c4cccc(C(N)=S)c4)cn(C4CCN(S(=O)(=O)C(F)(F)F)CC4)c3c2)C1	< 20 µM	–
NC(=S)c1cccc(-c2cn(CC(CF)CF)c3cc(NC(=O)CCc4nccs4)ccc23)c1	< 20 µM	–
COCCC(=O)Nc1ccc2c(-c3cccc(C(N)=S)c3)cn(C3CCC(F)(F)CC3)c2c1	< 20 µM	–
NC(=S)c1cccc(-c2cn(C3CCN(S(=O)(=O)C(F)(F)F)CC3)c3cc(CNC(=O)[C@@H]4C[C@H](O)CN4)ccc23)c1	< 20 µM	–
NC(=S)c1cccc(-c2cn(C3CCN(S(=O)(=O)C(F)(F)F)CC3)c3cc(CNC(=O)C4CNC4)ccc23)c1	–	Activity (MV4-11 [2]): Active

Compound	IC50 [1]	also measured
NC(=S)c1cccc(-c2cn(C3CCC(F)(F)CC3)c3cc(CNC(=O)C4CNC4)ccc23)c1	< 20 µM	–
CCCCCCN1CC(C(=O)NCc2ccc3c(-c4cccc(C(N)=S)c4)cn(C4CCN(S(=O)(=O)C(F)(F)F)CC4)c3c2)C1	< 20 µM	–
CN1CC(C(=O)NCc2ccc3c(-c4cccc(C(N)=S)c4)cn(C4CCN(S(=O)(=O)C(F)(F)F)CC4)c3c2Cl)C1	< 20 µM	–
CC(C)S(=O)(=O)N1CCC(n2cc(-c3cccc(C(N)=S)n3)c3ccc(CNc4nnc(N)s4)cc32)CC1	< 20 µM	–
CC1CN(S(C)(=O)=O)CCC1n1cc(-c2cccc(C(N)=S)c2)c2ccc(CNc3nnc(N)s3)cc21 (configuration not stated)	< 20 µM	–
CC1CN(S(C)(=O)=O)CCC1n1cc(-c2cccc(C(N)=S)c2)c2ccc(N)cc21 (configuration not stated)	–	GI50 (KOPN-8): 2.5 µM; GI50 [3]: > 50 µM; GI50 (MOLM-13): 2.7 µM; Activity (MV4-11 [4]): Active; GI50 (K562): > 25 µM
CS(=O)(=O)N1CCC(n2cc(-c3cccc(C(N)=S)c3)c3ccc(NC(=O)CCCCCNC(=O)CCCC[C@@H]4SC[C@@H]5NC(=O)N[C@@H]54)cc32)CC1	< 20 µM	–
NC(=S)c1cccc(-c2cn(C3CCC(F)(F)CC3)c3cc(NC(=O)CCCCCNC(=O)c4ccc5c(c4)C(=O)OC54c5ccc(O)cc5Oc5cc(O)ccc54)ccc23)c1	< 20 µM	–
Cc1cc(N2CCC(n3cc(-c4cccc(C(N)=S)c4)c4ccc(CNc5nnc(N)s5)cc43)CC2)n(C)n1	< 20 µM	–
CC(C)S(=O)(=O)N1CCC(n2cc(-c3cccc(C(N)=S)c3)c3ccc(CNc4nnc(N)s4)cc32)CC1	–	GI50 (MV4-11 [5]): 2.5 µM; GI50 (KOPN-8): 5 µM; GI50 (MOLM-13): 5.5 µM; GI50 (SEM cells): 2 µM; GI50 (K562): > 50 µM
CC(=O)Nc1ccc2c(-c3cccc(C(N)=S)c3)cn(C3CCN(S(=O)(=O)C(F)(F)F)CC3)c2c1	< 20 µM	–
NC(=S)c1cccc(-c2cn(CC(CF)CF)c3cc(NC(=O)Cc4nccs4)ccc23)c1	< 20 µM	–
CCC(=O)Nc1ccc2c(-c3cccc(C(N)=S)c3)cn(C3CCN(S(=O)(=O)C(C)C)CC3)c2c1	< 20 µM	–
CC(C)S(=O)(=O)N1CCC(n2cc(-c3cccc(C(N)=S)c3)c3ccc(N)cc32)CC1	< 20 µM	–
COc1ccc(Cn2cnc([N+](=O)[O-])c2NCc2ccc3c(-c4cccc(C(N)=S)c4)cn(C4CCOCC4)c3c2)cc1	< 20 µM	–
CCCOC1CNC(C(=O)NCc2ccc3c(-c4cccc(C(N)=S)c4)cn(C4CCN(S(=O)(=O)C(C)C)CC4)c3c2)C1 (configuration not stated)	< 20 µM	–
NC(=S)c1cccc(-c2cn(C3CCN(c4nccs4)CC3)c3cc(CNC(=O)C4CNC4)ccc23)c1	< 20 µM	–
NC(=S)c1cccc(-c2cn(C3CCN(c4nccs4)CC3)c3cc(CNc4nnc(N)s4)ccc23)c1	< 20 µM	–
CCCOC1CCNC1C(=O)NCc1ccc2c(-c3cccc(C(N)=S)c3)cn(C3CCN(S(=O)(=O)C(C)C)CC3)c2c1 (configuration not stated)	< 20 µM	–
CS(=O)(=O)N1CCC(n2cc(-c3cccc(C(N)=S)c3)c3ccc(NC(=O)CCOCCOCCOCCOCCNC(=O)CCCC[C@@H]4SC[C@@H]5NC(=O)N[C@@H]54)cc32)CC1	< 20 µM	–

Compound	IC50 [1]	also measured
CC(C)S(=O)(=O)N1CCC(n2cc(-c3cccc(C(N)=S)c3)c3ccc(CNC(=O)C4CN(C)C4)cc32)CC1	< 20 µM	–
CS(=O)(=O)N1CCC(n2cc(-c3cccc(C(N)=S)c3)c3ccc(CNC(=O)Cc4c[nH]cn4)c(Cl)c32)CC1	< 20 µM	–
CC1CC(n2cc(-c3cccc(C(N)=S)c3)c3ccc(CNc4nnc(N)s4)cc32)CCO1 (configuration not stated)	< 20 µM	–
COCCC(=O)Nc1ccc2c(-c3cccc(C(N)=S)c3)cn(CC(CF)CF)c2c1	< 20 µM	–
CC(C)S(=O)(=O)N1CCC(n2cc(-c3cccc(C(N)=S)c3)c3ccc(CNC(=O)C4CCCN4)cc32)CC1 (configuration not stated)	< 20 µM	–
CN(C)c1cccc2c(S(=O)(=O)NCCCCCCCCC(=O)Nc3ccc4c(-c5cccc(C(N)=S)c5)cn(C5CCC(F)(F)CC5)c4c3)cccc12	< 20 µM	–
NC(=S)c1cccc(-c2cn(C3CCOCC3)c3cc(CNc4nnc(N)[nH]4)ccc23)c1	< 20 µM	–
NC(=S)c1cccc(-c2cn(C3CCC(F)(F)CC3)c3c(Cl)c(N)ccc23)c1	< 20 µM	–
COc1cccc2[nH]cc(-c3cccc(C(N)=S)c3)c12	< 20 µM	–
NC(=S)c1cccc(-c2cn(C3CCN(S(=O)(=O)C(F)(F)F)CC3)c3cc(CNc4nnc(N)s4)ccc23)c1	< 20 µM	–
CC1CN(S(C)(=O)=O)CCC1n1cc(-c2cccc(C(N)=S)c2)c2ccc(CNC(=O)C3CN(C)C3)cc21 (configuration not stated)	< 20 µM	–
CC(C)S(=O)(=O)N1CCC(n2cc(-c3cccc(C(N)=S)c3)c3ccc(NC(=O)CCCC[C@@H]4SC[C@@H]5NC(=O)N[C@@H]54)cc32)CC1	< 20 µM	–
COCCN1CC(C(=O)NCc2ccc3c(-c4cccc(C(N)=S)c4)cn(C4CCN(S(C)(=O)=O)CC4)c3c2)C1	< 20 µM	–
CCCCCCN1CC(C(=O)NCc2ccc3c(-c4cccc(C(N)=S)c4)cn(C4CCN(S(C)(=O)=O)CC4)c3c2)C1	< 20 µM	–
NC(=S)c1cccc(-c2cn(C3CCN(S(=O)(=O)C(F)(F)F)CC3)c3cc(CNC(=O)C4CNCCN4)ccc23)c1 (configuration not stated)	< 20 µM	–
NC(=S)c1cccc(-c2cn(C3CCN(S(=O)(=O)C(F)(F)F)CC3)c3cc(NC(=O)CCOCCOCCOCCOCCOCCOCCNC(=O)CCCC[C@@H]4SC[C@@H]5NC(=O)N[C@@H]54)ccc23)c1	< 20 µM	–
CC(C)S(=O)(=O)N1CCC(n2cc(-c3cccc(C(N)=S)c3)c3ccc(CNC(=O)C4CNC4)cc32)CC1	< 20 µM	–
CCN1CC(C(=O)NCc2ccc3c(-c4cccc(C(N)=S)c4)cn(C4CCN(c5nccs5)CC4)c3c2)C1	< 20 µM	–
CS(=O)(=O)N1CC2CCC1CC2n1cc(-c2cccc(C(N)=S)c2)c2ccc(N)cc21 (configuration not stated)	< 20 µM	–
